Experimental data as given in US10538561B2, “Peptide for treating inflammatory diseases” (priority 2015, dated 2020).
Marks after values point to notes of the source that are not given here.

Columns and labels:
[1] = Maximum feasible concentration and formulation stability; format: physicochemical
Experimental: The solution stability of peptide IS 181 was performed in four different diluents at three different temperatures for 24 hours. Four different pre-formulations of concentration 10 mg/ml were prepared and formulation assay was performed at initial and […] at room temperature.

[2] = Cell viability (MTT assay) in PBMCs; format: cell-based, Human; settings: human, PBMCs
Experimental: (§1) Cell Lines/Cells: Human Keratinocytes (HaCaT); Human melanoma (SK-MEL-28); Human PBMCs. Test Item: IS181 Treatment regimen: Single addition—24 h, ^#Multiple additions (3)−72 h; Concentration range: 1 ng/ml-2 mg/ml (triplicate wells); Sera Condition: […] Method of estimation: MTT assay. […] Positive control: Triton-X-100, Doxorubicin Hydrochloride.

[3] = test system: Human PBMCs; assay: Cell viability (MTT assay) in PBMCs; format: cell-based; settings: for IC50 value / cytotoxicity: PBMCs
Experimental: as §1

[4] = molecular target: EGFR (ErbB1) (Homo sapiens, UniProt P00533); assay: Biochemical kinase assay EGFR
Experimental: Test system: cell free assays; test items: IS181; concentrations tested: 1 ng/ml-5000 μg/ml; Kinases: a) Cell free assays: EGFR (ErbB1); FLT1 (VEGFR1); JAK1; JAK3 MAP2K1 (MEK1); PDGFRA (PDGFR alpha); PRKCA (PKC alpha); b) cell based assay: JAK-STAT.

[5] = test system: IL-6; assay: LPS stimulated IL-6 secretion in RAW264.7; format: cell-based, Mouse; settings: for IL-6 % decrease with respect to LPS / IL-6 Conc (pg/ml): RAW264.7 + LPS, 24 h
Experimental: Effect on pro-inflammatory cytokines against LPS stimulation: TNF-α; IL-6; IL-1-β: Cell lines: Murine macrophage cell line (RAW264.7); test item: IS181; experimental steps: pretreatment of cells with TI for 2 hours; stimulation with LPS (100 ng/ml) for 24 hours; supernatant collection for cytokine analysis; concentration range: o.1 μg/ml-500 μg/ml (duplicate wells); Cytokines: TNF-α; IL-6; IL-1-β; Method of estimating cytokines: ELISA; positive control: dexamethasone.
Cell line: RAW264.7 (Mouse macrophages); TI treatment regimen: Pretreatment for 2 h; TI Concentration range: 0.1 μg/ml-500 μg/ml (duplicate wells); LPS stimulation: 100 ng/ml; Time point for supernatants collection: 24 h; Method of estimation: ELISA; Positive control: Dexamethasone

[6] = test system: mouse splenocytes; assay: Cell viability of splenocytes (MTT); format: cell-based; settings: splenocytes
Experimental: Cell lines: mouse splenocytes; test item: IS181; treatment regimen: single addition—24 hours; concentration range: 10 μg/ml-5000 μg/ml.A) Identification of non-cytotoxic concentrations: splenocytes were treated with IS181 for 24 hours. Effect on cell viability was assessed by MTT assay. Concentrations leading to >75% cell viability were selected for IL-17 assay. B) IL-17 assay: splenocytes were treated with IS181 in presence of ConA stimulation for 24 hours. Supernatants were collected and stored at −20° C. till analysed. Levels of IL-17 were analysed in supernatants by ELISA. Percent inhibition of IL-17 secretion was calculated with reference to ConA treated levels. Positive control: curcumin.

[7] = test system: IL-8; assay: LPS+PMA stimulated IL-8 secretion in HaCaT; format: cell-based, Human; settings: for IL-8 % decrease with respect to LPS + PMA / IL-8 Conc: HaCaT + LPS + PMA, 24 h
Experimental: Effect on pro-inflammatory cytokines against TNF-α/LPS+PMA stimulation: TNF-α; IFN-γ; TARC; TSLP; IL-6; IL-8: Cell lines: Human keratinocytes (HaCaT); test item (TI); IS181; experimental steps: pre-treatment of cells with TI for 2 hours; stimulation with TNF-α: 20 ng/ml; stimulation with LPS+PMA-10 μg/ml LPS+40 ng/ml PMA; supernatant collection for cytokine analysis after 24 hours; concentration range: 0.1 μg/ml-100 μg/ml (duplicate wells); cytokines: TNF-α; IFN-γ; TARC; TSLP; IL-6; IL-8. Method of estimating cytokines: ELISA; positive control: dexamethasone.
Cell line: HaCaT (Human Keratinocytes); TI Treatment regimen: Pretreatment for 2 h; TI Concentration range: 0.1 μg/ml-100 μg/ml (duplicate wells); TNF-α stimulation: 20 ng/ml; LPS+PMA stimulation: 10 μg/ml LPS+40 ng/ml PMA; Time point for supernatants collection: 24 h; Method of estimation: ELISA; Positive control: Dexamethasone

[8] = 10% v/v Propylene glycol in 0.9% NaCl (for IM& SC)

Chain of EGFR (ErbB1) (P00533 25-1210): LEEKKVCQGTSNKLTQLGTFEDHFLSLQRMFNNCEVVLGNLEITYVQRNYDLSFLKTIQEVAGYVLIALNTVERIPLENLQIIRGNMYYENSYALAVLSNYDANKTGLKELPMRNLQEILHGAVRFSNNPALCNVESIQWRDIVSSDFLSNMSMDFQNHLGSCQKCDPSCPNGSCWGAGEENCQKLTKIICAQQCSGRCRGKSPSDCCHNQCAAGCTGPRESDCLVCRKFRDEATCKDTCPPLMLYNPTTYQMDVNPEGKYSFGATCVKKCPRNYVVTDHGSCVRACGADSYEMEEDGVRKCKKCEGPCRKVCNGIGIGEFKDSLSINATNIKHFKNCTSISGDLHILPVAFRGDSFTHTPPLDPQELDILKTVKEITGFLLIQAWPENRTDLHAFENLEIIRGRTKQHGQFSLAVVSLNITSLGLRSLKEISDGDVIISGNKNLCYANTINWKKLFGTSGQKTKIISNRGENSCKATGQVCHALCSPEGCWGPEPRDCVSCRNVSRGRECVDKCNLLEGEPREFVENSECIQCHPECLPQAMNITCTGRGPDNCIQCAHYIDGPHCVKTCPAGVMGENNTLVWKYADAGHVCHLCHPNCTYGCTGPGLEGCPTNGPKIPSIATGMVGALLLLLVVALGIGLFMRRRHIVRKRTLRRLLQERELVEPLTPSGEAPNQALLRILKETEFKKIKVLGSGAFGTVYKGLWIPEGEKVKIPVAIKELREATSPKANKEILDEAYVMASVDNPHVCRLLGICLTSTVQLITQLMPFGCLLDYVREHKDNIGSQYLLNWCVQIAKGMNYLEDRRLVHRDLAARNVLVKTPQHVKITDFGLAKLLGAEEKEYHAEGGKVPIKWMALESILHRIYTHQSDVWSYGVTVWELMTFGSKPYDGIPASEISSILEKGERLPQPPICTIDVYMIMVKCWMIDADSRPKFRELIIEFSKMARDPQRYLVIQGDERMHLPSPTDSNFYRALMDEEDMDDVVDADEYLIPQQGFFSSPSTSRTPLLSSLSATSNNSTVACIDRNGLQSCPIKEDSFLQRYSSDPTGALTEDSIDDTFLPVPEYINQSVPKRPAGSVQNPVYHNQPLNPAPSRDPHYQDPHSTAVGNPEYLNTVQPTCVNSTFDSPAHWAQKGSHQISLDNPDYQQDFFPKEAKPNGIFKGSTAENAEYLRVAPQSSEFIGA

H-WVQRVVEKFLK-OH [IS181, H-Trp-Val-Gln-Arg-Val-Val-Glu-Lys-Phe-Leu-Lys-OH]
MFC ([1]; 0.9% NaCl (for IV)): >25.0 mg/mL | Stability of formulation at RT ([1]; 0.9% NaCl (for IV)): Up to 24 hrs | MFC [1, 8]: >25.0 mg/mL | Stability of formulation at RT [1, 8]: Up to 24 hrs | cytotoxicity at 24 h, 1000 μg/ml ([2]; human PBMCs, 24 h, 1000 μg/ml): 40.2% | cytotoxicity at 24 h, 2000 μg/ml ([2]; human PBMCs, 24 h, 2000 μg/ml): 53% | cytotoxicity at 72 h, 500 μg/ml ([2]; human PBMCs, 72 h, 500 μg/ml): 32.7% | cytotoxicity at 72 h, 1000 μg/ml ([2]; human PBMCs, 72 h, 1000 μg/ml): 70.8% | cytotoxicity at 72 h, 2000 μg/ml ([2]; human PBMCs, 72 h, 2000 μg/ml): 66.1% | cytotoxicity at 24 h, 10 μg/ml ([2]; peripheral blood mononuclear cells (PBMCs), 24 h, 10 μg/ml): -76.5% | cytotoxicity at 24 h, 50 μg/ml ([2]; peripheral blood mononuclear cells (PBMCs), 24 h, 50 μg/ml): -67.1% | cytotoxicity at 24 h, 100 μg/ml ([2]; peripheral blood mononuclear cells (PBMCs), 24 h, 100 μg/ml): -88.3% | cytotoxicity at 24 h, 500 μg/ml ([2]; peripheral blood mononuclear cells (PBMCs), 24 h, 500 μg/ml): -105% | cytotoxicity at 72 h, 10 μg/ml ([2]; peripheral blood mononuclear cells (PBMCs), 72 h, 10 μg/ml): 18.7% | cytotoxicity at 72 h, 50 μg/ml ([2]; peripheral blood mononuclear cells (PBMCs), 72 h, 50 μg/ml): 20.1% | cytotoxicity at 72 h, 100 μg/ml ([2]; peripheral blood mononuclear cells (PBMCs), 72 h, 100 μg/ml): 14% | IC50 ([3]; 24 h): 1400 µM | IC50 ([3]; 72 h): 680 µM | IC50 value ([3]; 24 h): 2 mg/mL | cytotoxicity ([3]; 24 h, at concentrations 1 mg/ml): 40% to 53% | IC50 value ([3]; 72 h): 0.98 mg/mL | cytotoxicity ([3]; 72 h, concentrations >0.5 mg/ml): 33% to 66% | inhibition at 10 µg/mL ([4]; 10 μg/ml): 43% | inhibition at 50 µg/mL ([4]; cell free, 50 μg/ml): 43% | inhibition at 100 µg/mL ([4]; cell free, 100 μg/ml): -12% | inhibition at 250 µg/mL ([4]; cell free, 250 μg/ml): -29% | inhibition at 500 µg/mL ([4]; cell free, 500 μg/ml): -56% | inhibition at 1000 µg/mL ([4]; cell free, 1000 μg/ml): -87% | inhibition at 2000 µg/mL ([4]; cell free, 2000 μg/ml): -155% | IL-6 inhibition as compared to LPS stimulated levels ([5]; RAW264.7): good extent of TNF-α and IL-6 inhibition | IL-6 % decrease with respect to LPS ([5]; 0.1 μ/ml): 57.2% | IL-6 Conc (pg/ml) ([5]; 0.1 μ/ml): 908.7*** pg/ml | IL-6 % decrease with respect to LPS ([5]; 1 μ/ml): 41.2% | IL-6 Conc (pg/ml) ([5]; 1 μ/ml): 1248.3*** pg/ml | IL-6 % decrease with respect to LPS ([5]; 5 μ/ml): 26.3% | IL-6 Conc (pg/ml) ([5]; 5 μ/ml): 1565.9*** pg/ml | IL-6 % decrease with respect to LPS ([5]; 10 μ/ml): 76.4% | IL-6 Conc (pg/ml) ([5]; 10 μ/ml): 501.5*** pg/ml | IL-6 % decrease with respect to LPS ([5]; 100 μ/ml): 35.4% | IL-6 Conc (pg/ml) ([5]; 100 μ/ml): 1371.8*** pg/ml | IL-6 % decrease with respect to LPS ([5]; 500 μ/ml): 68.5% | IL-6 Conc (pg/ml) ([5]; 500 μ/ml): 669.1*** pg/ml | inhibition of IL-6 secretion as compared to LPS treated cells ([5]; RAW264.7, 0.1 μg/ml-500 μg/ml): 26.3%-76.4% | cytotoxicity [6]: < 25% | cytotoxicity ([6]; 2 mg/ml): 48.4% | cytotoxicity ([6]; 5 mg/ml): 74.4% | IL-8 inhibition ([7]; HaCaT): good extent of TSLP and IL-8 inhibition | IL-8 % decrease with respect to LPS + PMA ([7]; 0.1 μg/ml): 8.8% | IL-8 Conc ([7]; 0.1 μg/ml): 357.4 pg/mL | IL-8 % decrease with respect to LPS + PMA ([7]; 1 μg/ml): 19.8% | IL-8 Conc ([7]; 1 μg/ml): 314.5 pg/mL | IL-8 % decrease with respect to LPS + PMA ([7]; 5 μg/ml): 4.3% | IL-8 Conc ([7]; 5 μg/ml): 375.3 pg/mL | IL-8 % decrease with respect to LPS + PMA ([7]; 10 μg/ml): 19.4% | IL-8 Conc ([7]; 10 μg/ml): 316.1 pg/mL | IL-8 % decrease with respect to LPS + PMA ([7]; 100 μg/ml): −18.1% | IL-8 Conc ([7]; 100 μg/ml): 463.1 pg/mL
